Legend:
B. subtilis 168 [1] = assay: fitness (endpoint OD595 vs no drug) (fraction); higher = more growth
How it was run: (§1)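 Fitness was defined as the optical density at the transition into stationary phase relative to the robust mean of no-drug control wells. Values were capped at 1. Cultures were started at OD595 0.01 in 384-well plates (30 µl, or 55 µl for S. pneumoniae) in TSB, LB Lennox or CY at 37 °C. OD595 was recorded every 30 min over 14 h, with the first reading subtracted as background.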

S. aureus Newman [2] = assay: as above
How it was run: as §1

S. pneumoniae D39V [3] = assay: as above
How it was run: as §1

B. subtilis 168 [4] = assay: Bliss interaction score (quartile over a dose matrix) (fitness difference); higher = more antagonism (negative = synergy)
How it was run: (§2)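 Fitness here means normalised growth, inferred for single drugs from the combination data. Growth was OD595 at entry into stationary phase, divided by the plate's robust no-drug mean and capped at 1. The Bliss score is observed minus expected fitness, with the expectation being the product, and its quartiles span technical, biological and donor/recipient replicates.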

S. aureus DSM 20231 [5] = assay: as above
How it was run: as §2

S. aureus Newman [6] = assay: as above
How it was run: as §2

S. pneumoniae D39V [7] = assay: as above
How it was run: as §2

S. aureus DSM 20231 [8] = assay: fitness (endpoint OD595 vs no drug) (fraction); higher = more growth
How it was run: as §1
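Wherever Bliss interaction score (quartile over a dose matrix) is given: first quartile when negative (synergy) and third quartile when positive (antagonism).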

CN[C@@H]1[C@H](O)[C@H](NC)[C@H]2O[C@@]3(O)C(=O)C[C@@H](C)O[C@H]3O[C@@H]2[C@H]1O [Spectinomycin] + CN[C@@H]1[C@H](O[C@H]2[C@H](O[C@H]3[C@H](O)[C@@H](O)[C@H](N=C(N)N)[C@@H](O)[C@@H]3N=C(N)N)O[C@@H](C)[C@]2(O)C=O)O[C@@H](CO)[C@H](O)[C@H]1O [Streptomycin]
fitness
Conditions | first compound 2 µg/mL | first compound 4 µg/mL | first compound 8 µg/mL | first compound 16 µg/mL
B. subtilis 168 [1], partner 2 µg/mL | 0.928 | 0.973 | 0.894 | –
B. subtilis 168 [1], partner 4 µg/mL | – | – | 0.623 | –
B. subtilis 168 [1], partner 8 µg/mL | 0.148 | 0.0533 | 0.0588 | –
S. aureus Newman [2], partner 1 µg/mL | – | 0.956 | 0.943 | 0.906
S. aureus Newman [2], partner 2 µg/mL | – | 0.926 | 0.975 | –
S. pneumoniae D39V [3], partner 2 µg/mL | – | 0.946 | 0.89 | –
S. pneumoniae D39V [3], partner 4 µg/mL | – | 0.952 | 0.878 | 0.83
S. pneumoniae D39V [3], partner 8 µg/mL | – | 0.921 | 0.89 | 0.822

one replicate
Conditions | fitness
S. aureus Newman [2], first compound 16 µg/mL, partner 8 µg/mL | 0.0211
S. aureus Newman [2], first compound 32 µg/mL, partner 2 µg/mL | 0.455
S. aureus Newman [2], first compound 32 µg/mL, partner 4 µg/mL | 0.342
S. aureus Newman [2], first compound 32 µg/mL, partner 8 µg/mL | 0.0569
S. aureus Newman [2], first compound 64 µg/mL, partner 2 µg/mL | 0.0619
S. aureus Newman [2], first compound 64 µg/mL, partner 4 µg/mL | 0.0473
S. aureus Newman [2], first compound 64 µg/mL, partner 8 µg/mL | 0.0327
S. pneumoniae D39V [3], first compound 4 µg/mL, partner 16 µg/mL | 0.882
S. pneumoniae D39V [3], first compound 8 µg/mL, partner 16 µg/mL | 0.842
S. pneumoniae D39V [3], first compound 16 µg/mL, partner 2 µg/mL | 0.84
S. pneumoniae D39V [3], first compound 16 µg/mL, partner 16 µg/mL | 0.705

Conditions | Bliss interaction score
B. subtilis 168 [4] | 0.0835
S. aureus DSM 20231 [5] | 0.126
S. aureus Newman [6] | 0.0625
S. pneumoniae D39V [7] | 0.0931

CC(=O)NC[C@H]1CN(c2ccc(N3CCOCC3)c(F)c2)C(=O)O1 [Linezolid] + CCCCCCCCCC(=O)N[C@@H]1[C@H]([C@@H]([C@H](O[C@H]1OC2=C3C=C4C=C2OC5=C(C=C(C=C5)[C@H]([C@H]6C(=O)N[C@@H](C7=C(C(=CC(=C7)O)OC8[C@H]([C@H]([C@@H]([C@H](O8)CO)O)O)O)C9=C(C=CC(=C9)[C@H](C(=O)N6)NC(=O)[C@@H]4NC(=O)[C@@H]1C2=CC(=CC(=C2)OC2=C(C=CC(=C2)[C@H](C(=O)N[C@H](CC2=CC(=C(O3)C=C2)Cl)C(=O)N1)N)O)O)O)C(=O)O)O[C@H]1[C@@H]([C@H]([C@@H]([C@H](O1)CO)O)O)NC(=O)C)Cl)CO)O)O [Teicoplanin]
fitness, S. aureus DSM 20231 [8], main component drawn
Conditions | first compound 0.125 µg/mL | first compound 0.25 µg/mL | first compound 0.5 µg/mL
partner 0.1562 µg/mL | 0.852 | 0.649 | 0.158
partner 0.3125 µg/mL | 0.989 | – | –
partner 0.625 µg/mL | ≥ 1 | – | –

S. aureus DSM 20231 [8], first compound 1 µg/mL, one replicate, main component drawn
Conditions | fitness
partner 0.1562 µg/mL | 0.0359
partner 0.3125 µg/mL | 0.0319
partner 0.625 µg/mL | 0.0292

main component drawn
Conditions | Bliss interaction score
B. subtilis 168 [4] | -0.0585
S. aureus DSM 20231 [5] | 0.109
S. aureus Newman [6] | 0.116
S. pneumoniae D39V [7] | -0.0593

CC(=O)NC[C@H]1CN(c2ccc(N3CCOCC3)c(F)c2)C(=O)O1 [Linezolid] + Cc1ncc([N+](=O)[O-])n1CCO [Metronidazole]
fitness, one replicate
Conditions | partner 0.625 µg/mL | partner 1.25 µg/mL | partner 2.5 µg/mL
B. subtilis 168 [1], first compound 0.0625 µg/mL | 0.86 | 0.895 | 0.875
S. aureus DSM 20231 [8], first compound 1 µg/mL | 0.0445 | 0.0462 | 0.042

Conditions | fitness
B. subtilis 168 [1], first compound 0.125 µg/mL, partner 0.625 µg/mL | 0.648
B. subtilis 168 [1], first compound 0.125 µg/mL, partner 1.25 µg/mL | 0.607
B. subtilis 168 [1], first compound 0.125 µg/mL, partner 2.5 µg/mL | 0.597
B. subtilis 168 [1], first compound 0.25 µg/mL, partner 0.625 µg/mL | 0.0733
B. subtilis 168 [1], first compound 0.25 µg/mL, partner 1.25 µg/mL | 0.0982
B. subtilis 168 [1], first compound 0.25 µg/mL, partner 2.5 µg/mL | 0.105
B. subtilis 168 [1], first compound 0.5 µg/mL, partner 0.625 µg/mL | 0.0494
B. subtilis 168 [1], first compound 0.5 µg/mL, partner 1.25 µg/mL | 0.0531
B. subtilis 168 [1], first compound 0.5 µg/mL, partner 2.5 µg/mL | 0.0511
S. aureus DSM 20231 [8], first compound 0.125 µg/mL, partner 0.625 µg/mL | 0.947
S. aureus DSM 20231 [8], first compound 0.125 µg/mL, partner 1.25 µg/mL | 0.94
S. aureus DSM 20231 [8], first compound 0.125 µg/mL, partner 2.5 µg/mL | 0.942
S. aureus DSM 20231 [8], first compound 0.25 µg/mL, partner 0.625 µg/mL | 0.621
S. aureus DSM 20231 [8], first compound 0.25 µg/mL, partner 1.25 µg/mL | 0.723
S. pneumoniae D39V [3], first compound 0.105 µg/mL, partner 1.25 µg/mL | 0.866
S. pneumoniae D39V [3], first compound 0.105 µg/mL, partner 2.5 µg/mL | 0.877
S. pneumoniae D39V [3], first compound 0.105 µg/mL, partner 5 µg/mL | 0.841
S. pneumoniae D39V [3], first compound 0.2 µg/mL, partner 1.073 µg/mL | 0.832
S. pneumoniae D39V [3], first compound 0.2 µg/mL, partner 2.145 µg/mL | 0.804
S. pneumoniae D39V [3], first compound 0.2 µg/mL, partner 4.29 µg/mL | 0.817
S. pneumoniae D39V [3], first compound 0.21 µg/mL, partner 1.25 µg/mL | 0.776
S. pneumoniae D39V [3], first compound 0.21 µg/mL, partner 2.5 µg/mL | 0.78
S. pneumoniae D39V [3], first compound 0.21 µg/mL, partner 5 µg/mL | 0.753
S. pneumoniae D39V [3], first compound 0.4 µg/mL, partner 1.073 µg/mL | 0.741
S. pneumoniae D39V [3], first compound 0.4 µg/mL, partner 2.145 µg/mL | 0.77
S. pneumoniae D39V [3], first compound 0.4 µg/mL, partner 4.29 µg/mL | 0.714
S. pneumoniae D39V [3], first compound 0.42 µg/mL, partner 1.25 µg/mL | 0.663
S. pneumoniae D39V [3], first compound 0.42 µg/mL, partner 2.5 µg/mL | 0.646
S. pneumoniae D39V [3], first compound 0.42 µg/mL, partner 5 µg/mL | 0.63
S. pneumoniae D39V [3], first compound 0.8 µg/mL, partner 2.145 µg/mL | 0.445
S. pneumoniae D39V [3], first compound 0.8 µg/mL, partner 4.29 µg/mL | 0.424

Conditions | Bliss interaction score
B. subtilis 168 [4] | 0.103
S. aureus DSM 20231 [5] | 0.111
S. aureus Newman [6] | 0.0844
S. pneumoniae D39V [7] | 0.143

CC(=O)NC[C@H]1CN(c2ccc(N3CCOCC3)c(F)c2)C(=O)O1 [Linezolid] + Cn1nnc(-c2ccc(-c3ccc(N4C[C@H](CO)OC4=O)cc3F)cn2)n1 [Tedizolid]
fitness
Conditions | partner 0.03125 µg/mL | partner 0.0625 µg/mL | partner 0.125 µg/mL | partner 0.25 µg/mL | partner 0.5 µg/mL
S. aureus DSM 20231 [8], first compound 0.125 µg/mL | – | 0.689 | 0.501 | 0.257 | –
S. aureus DSM 20231 [8], first compound 0.25 µg/mL | – | 0.456 | 0.26 | 0.141 | –
S. aureus DSM 20231 [8], first compound 0.5 µg/mL | – | 0.119 | 0.0888 | 0.0646 | –
S. pneumoniae D39V [3], first compound 0.105 µg/mL | – | – | 0.682 | 0.441 | 0.141
S. pneumoniae D39V [3], first compound 0.2 µg/mL | 0.819 | 0.825 | 0.723 | – | –
S. pneumoniae D39V [3], first compound 0.21 µg/mL | – | – | 0.58 | 0.286 | 0.0818
S. pneumoniae D39V [3], first compound 0.4 µg/mL | 0.73 | 0.724 | 0.633 | – | –
S. pneumoniae D39V [3], first compound 0.42 µg/mL | – | – | 0.249 | 0.107 | 0.0451
S. pneumoniae D39V [3], first compound 0.8 µg/mL | 0.549 | 0.578 | 0.465 | – | –

S. aureus DSM 20231 [8], first compound 1 µg/mL, one replicate
Conditions | fitness
partner 0.0625 µg/mL | 0.0257
partner 0.125 µg/mL | 0.0309
partner 0.25 µg/mL | 0.0295

Conditions | Bliss interaction score
B. subtilis 168 [4] | -0.188
S. aureus DSM 20231 [5] | -0.185
S. aureus Newman [6] | -0.153
S. pneumoniae D39V [7] | -0.148

CN[C@@H]1[C@H](O)[C@H](NC)[C@H]2O[C@@]3(O)C(=O)C[C@@H](C)O[C@H]3O[C@@H]2[C@H]1O [Spectinomycin] + COc1cc(Cc2cnc(N)nc2N)cc(OC)c1OC [Trimethoprim]
fitness, one replicate
Conditions | first compound 2 µg/mL | first compound 4 µg/mL | first compound 8 µg/mL | first compound 32 µg/mL | first compound 64 µg/mL
B. subtilis 168 [1], partner 0.1 µg/mL | 0.871 | 0.821 | 0.686 | – | –
B. subtilis 168 [1], partner 0.125 µg/mL | 0.707 | 0.606 | 0.414 | – | –
B. subtilis 168 [1], partner 0.2 µg/mL | 0.781 | 0.762 | 0.386 | – | –
B. subtilis 168 [1], partner 0.4 µg/mL | 0.473 | 0.556 | 0.223 | – | –
B. subtilis 168 [1], partner 1 µg/mL | 0.508 | 0.338 | 0.167 | – | –
B. subtilis 168 [1], partner 2 µg/mL | 0.408 | 0.187 | 0.0702 | – | –
S. aureus DSM 20231 [8], partner 0.125 µg/mL | – | 0.808 | 0.822 | 0.629 | 0.026
S. aureus DSM 20231 [8], partner 0.25 µg/mL | – | – | – | 0.573 | 0.0208
S. aureus DSM 20231 [8], partner 0.5 µg/mL | – | – | – | 0.299 | 0.0374

fitness
Conditions | first compound 4 µg/mL | first compound 8 µg/mL | first compound 16 µg/mL
B. subtilis 168 [1], partner 0.25 µg/mL | – | 0.482 | –
B. subtilis 168 [1], partner 0.5 µg/mL | 0.496 | 0.308 | –
S. aureus DSM 20231 [8], partner 0.125 µg/mL | – | – | 0.654
S. aureus DSM 20231 [8], partner 0.25 µg/mL | 0.598 | 0.593 | 0.649
S. aureus DSM 20231 [8], partner 1 µg/mL | 0.0368 | 0.0298 | 0.0188

Conditions | Bliss interaction score
B. subtilis 168 [4] | -0.0925
S. aureus DSM 20231 [5] | 0.0932
S. aureus Newman [6] | 0.0863
S. pneumoniae D39V [7] | -0.161

Source: the supplement of paper PMC10627819
